Common to all, as to type: functional
In assay [1] the test system is Staphylococcus epidermidis. The assay can be described thus: In vitro antibacterial activity against methicillin resistant Staphylococcus epidermidis UC 12084.
Assay [2] concerns Staphylococcus aureus. As to the kind of experiment: In vitro antibacterial activity against methicillin resistant Staphylococcus aureus UC 12673 (MRSA).
The subject of the next assay is Streptococcus pneumoniae. The assay can be described thus: In vitro antibacterial activity against penicillin sensitive Streptococcus pneumoniae UC 9912.
The test system of assay [3] is Staphylococcus aureus. The assay can be described thus: In vitro antibacterial activity against methicillin susceptible Staphylococcus aureus UC 9213 (MSSA).
The test system of the next assay is Enterococcus faecalis. As to the kind of experiment: In vitro antibacterial activity against vancomycin resistant Enterococcus faecalis UC 9217 (VREA).
The subject of another assay is Mus musculus. As to the kind of experiment: In vivo efficacy to protect the Staphylococcus aureus infected mouse and the activity was reported using Linezolid as a control with ED50 = 3.7.
A further assay concerns Moraxella catarrhalis. As to the kind of experiment: In vitro antibacterial activity against Moraxella catarrhalis 30607.
The test system of a further assay is Haemophilus influenzae. The assay can be described thus: In vitro antibacterial activity against ampicillin resistant Haemophilus influenzae 30063 (B-lactamase +).

In brackets after ≈: the same amount, converted by molar mass.

For orientation: ED50 means the dose at which the effect has come halfway, by size or by number of responders. A higher ED50 goes with weaker potency. As to `CC(=O)NC[C@H]1CN(c2ccc(-c3nnc(COC(C)=O)s3)c(F)c2)C(=O)O1`, the MIC in assay [1] was 0.25 µg/mL (≈ 0.612 µM); against Staphylococcus aureus [2], 1 µg/mL (≈ 2.45 µM); in the assay on Streptococcus pneumoniae, less than 0.125 µg/mL; with Staphylococcus aureus [3] it was 1 µg/mL (≈ 2.45 µM); in the assay with Enterococcus faecalis it was 1 µg/mL (≈ 2.45 µM); with Moraxella catarrhalis it was 2 µg/mL (≈ 4.9 µM). The same molecule returned an MIC against Haemophilus influenzae of 4 µg/mL (≈ 9.79 µM). Moreover, the ED50 with Mus musculus worked out at 18.5 mg/kg.

(Values after ChEMBL document CHEMBL1136455, “The synthesis and antibacterial activity of 1,3,4-thiadiazole phenyl oxazolidinone analogues” (Bioorg Med Chem Lett, 2003).)
